Assay results from patent publication US7745446B2, “Pyrazolo[1,5-c]pyrimidines” (Bayer Schering Pharma Aktiengesellschaft, priority 2004, dated 2010).

Experiments:
[1] = test system: phosphorylated Akt1 (Ser473) in MCF7 cells; experiment: Cellular PI3K/Akt pathway assay (pAkt-ELISA); assay type: cell-based; settings: Homo sapiens, β-Heregulin stimulation, 48 h, read-out: Akt pathway inhibition (pAkt-ELISA): IC50
Protocol: In order to study the cellular activity of the compounds according to the invention, an ELISA-based assay has been established. The assay is based on a Sandwich ELISA kit (PathScan™ Phospho-Akt1 (Ser473); Cell Signaling, USA; #7160).
The assay detects endogenous levels of phosphorylated Akt1 protein. A phospho-Akt (Ser473) antibody (Cell Signaling, USA; #9271) has been coated onto the microwells. After incubation with cell lysates, the phosphorylated Akt protein is captured by the coated antibody. Following extensive washing, Akt1 monoclonal antibody (Cell Signaling, USA; #2967) is added to detect the captured phospho-Akt1 protein. HRP-linked anti-mouse antibody (Cell Signaling, USA; #7076) is then used to recognize the bound detection antibody. HRP substrate (=TMB; Cell Signaling, USA; #7160) is added to develop colour. The magnitude of optical density for this developed color is proportional to the quantity of phosphorylated Akt1 protein.
MCF7 cells (ATCC HTB-22) are seeded into 96 well fate bottom plates at a density of 10000 cells/well. 24 hours after seeding the cells are starved using estrogen-free medium (IMEM including 0.1% charcoal treated FCS). […] To stimulate Akt phosphorylation, β-Heregulin (20 ng/ml) is added in parallel to the compounds. Wells containing unstimulated control cells (no β-Heregulin stimulation) are incubated with or without the diluted compound. Wells containing untreated control cells (no compound) are filled with medium containing 0.5% v:v DMSO and are with P-Heregulin or are not stimulated.
Cells are harvested under nondenaturating conditions and lysed with brief sonification in 1× cell lyses buffer (20 mM Tris (pH7.5), 150 mM NaCl, 1 mM ethylene diaminetetraacetate (EDTA), 1 mM ethylene glycolbis-(2-aminoethyl)-N,N,N′,N′-tetraacetic acid (EGTA), 1% Triton X-100, 2.5 mM sodium pyrophosphate, 1 mM β-glycerolphosphate, 1 mM Na3VO4, 1 μg/ml leupeptin). The lysate is microcentrifuged for 10 minutes at 4° C. and the supernatant is transferred to a new tube. 100 μl of sample diluent (0.1% tween-20, 0.1% sodium azide in 20× PBS) are added to a microcentrifuge tube and 100 μl of cell lysate are transferred into the tube and vortexed. 100 μl of each diluted cell lysate are added to the appropriate well (phospho-Akt (Ser473) antibody coated microwells; Cell Signaling, USA; #7160) and incubated overnight at 4° C. The plates are washed 4 times with 1× wash buffer (1% tween-20, 0.33% thymol, in 20×PBS). Then 100 μl of detection antibody (Akt1 (2H10) monoclonal detection antibody; Cell Signaling, USA; #2967) are added to each well and incubated for 1 h at 37° C. The washing procedure is repeated between each step. […] The absorbance is read at 450 nm (Wallac Victor2; Perkin Elmer, USA) within 30 minutes after adding STOP solution. […]

[2] = molecular target: T1, full-length Akt1 (active) (Homo sapiens, UniProt P31749); experiment: Biochemical Akt1 assay (full-length Akt1 active, flashplate, Crosstide); settings: 100 nM ATP, Crosstide substrate; read-out: Akt1 inhibition (full-length Akt1, active): IC50
T1 construct: recombinant full-length human Akt1, containing N-terminal His6 tag; His6 (N); GST (N); purchased Upstate, UK #14-276; host or cells: baculovirus infected Sf21 insect cells
Description: For the biochemical Akt1 assay recombinant full-length human Akt1, containing N-terminal His6 tag is cloned and expressed in baculovirus infected Sf21 insect cells. Akt1 is activated with GST-MAPKAP-K2 and PDK1, and repurified on Ni2+/NTA-agrose and glutathioneagarose (Upstate, UK; #14-276).
In order to study the inhibition of Akt1 (full-length version) according to the invention, a flashplate-based assay has been developed.
The full-length Akt1 assay is a biochemical assay using Akt1 N-terminally fused to GST and co-expressed with PDKI in insect cells. The Akt1 assay is run in 96 well plates by incubating 500 ng/well GST-Akt1, 1 μM Crosstide (N-terminally biotinylated synthetic peptide (KGSGSGRPRTSSFAEG) Upstate, #12-385) as substrate, 10 μl of test compound (test compounds were dissolved as 10 mM solutions in dimethylsulfoxide (DMSO) and subsequently diluted) and 100 nM ATP (including ^33P-ATP) in 100 μl of reaction buffer (50 mM HEPES, pH7,5; 3 mM MgCl2; 3 mM MnCl2; 3 μM Na-Orthovanadat; 1 mM DTT; 1 μg/ml PEG8000) for 60 minutes at 30° C. in 96 well microtiter plates. The reactions are terminated by adding 100 μl stopping buffer (5M NaCl, 35 mM EDTA pH 8.0) for 5 minutes. 190μl of the reaction mixture are transferred into streptavidin-coated Flashplates (Perkin Elmer, #SMP-103) and incubated for further 30 minutes at room temperature. The plates are washed 3 times by using washing buffer (0.9% NaCl). Relying on the incorporation of ^33P into the peptide substrate crosstide, the detection is based on the specific binding of the biotinylated peptide to the streptavidin-coated surface of scintillator-coated flash plates (NEN, USA; #SMP-103). This phosphorylation is measured by counting the plate for 60 sec. using a plate reader (Wallac Microbeta; Perkin Elmer, USA).

[3] = test system: MCF7 cells; experiment: Cellular proliferation/cytotoxicity assay (Alamar Blue), MCF7; settings: Homo sapiens, MCF7, 48 h, read-out: Anti-proliferative/cytotoxic activity: IC50 MCF7

T1 sequence (P31749 whole entry): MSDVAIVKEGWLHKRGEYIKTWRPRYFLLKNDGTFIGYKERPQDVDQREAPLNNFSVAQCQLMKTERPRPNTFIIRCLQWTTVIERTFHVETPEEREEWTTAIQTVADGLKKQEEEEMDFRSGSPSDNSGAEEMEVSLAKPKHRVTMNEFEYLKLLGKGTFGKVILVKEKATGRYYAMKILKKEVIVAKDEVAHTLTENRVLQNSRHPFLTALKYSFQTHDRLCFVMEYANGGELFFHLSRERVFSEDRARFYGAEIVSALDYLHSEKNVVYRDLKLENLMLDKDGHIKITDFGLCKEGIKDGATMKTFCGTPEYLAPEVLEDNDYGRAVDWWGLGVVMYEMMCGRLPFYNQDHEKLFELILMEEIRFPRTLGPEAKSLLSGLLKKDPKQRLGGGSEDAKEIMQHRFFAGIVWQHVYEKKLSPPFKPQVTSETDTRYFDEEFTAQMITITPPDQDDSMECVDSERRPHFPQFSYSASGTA

| IC50 [1] | IC50 [2] | SMILES | IC50 [3] |
| --- | --- | --- | --- |
| ≤ 6 µM | ≤ 4.03 µM | COc1cccc(-c2ccc(-c3cc4c(Br)cnn4c(Nc4ccc(NC(=O)c5ccc(CN)cc5)cc4)n3)cc2)c1 [Example 87, 4-Aminomethyl-N-{4-[3-bromo-5-(3′-methoxy-biphenyl-4-yl)-pyrazolo[1,5-c]pyrimidin-7-ylamino]-phenyl}-benzamide] | ≤ 16.9 µM |
| ≤ 6 µM | ≤ 4.03 µM | COc1cccc(-c2ccc(-c3cc4ccnn4c(Nc4ccc(NC(=O)c5ccc(CN)cc5)cc4)n3)cc2)c1 [Example 59, 4-Aminomethyl-N-{4-[5-(3′-methoxy-biphenyl-4-yl)-pyrazolo[1,5-c]pyrimidin-7-ylamino]-phenyl}-benzamide] | ≤ 16.9 µM |
| ≤ 6 µM | ≤ 4.03 µM | O=C(Nc1cccc(Nc2nc(-c3cccc4c3oc3ccccc34)cc3ccnn23)c1)c1ccc2c(c1)CCNC2 [Example 63, 1,2,3,4-Tetrahydro-isoquinoline-6-carboxylic acid [3-(5-dibenzofuran-4-yl-pyrazolo[1,5-c]pyrimidin-7-ylamino)-phenyl]-amide] | ≤ 16.9 µM |
| ≤ 6 µM | ≤ 4.03 µM | NCCCC(=O)Nc1ccc(Nc2nc(-c3cccc4c3oc3ccccc34)cc3ccnn23)cc1 [Example 24, 4-Amino-N-[4-(5-dibenzofuran-4-yl-pyrazolo[1,5-c]pyrimidin-7-ylamino)-phenyl]-butyramide] | ≤ 16.9 µM |
